Columns and labels:
[1] = system: RAW 264.7 cells; experiment: Cyclic voltammetry measurement of hydrogen peroxide secreted into the cell culturing liquid after PMA treatment (HRP carbon paste work electrode); assay type: cell-based, murine; conditions: 16 μM PMA; CV 0 V to −1 V, reduction current at −400 mV; calibration curve; FIG. 4-6
Procedure: (§1) After introducing the sensor chip into an autoclave, the sensor chip was autoclaved at a temperature of 120° C. for […]. Thereafter, RAW 264.7 cells as a murine macrophage cell line were inoculated into a cell culturing compartment containing the culturing liquid of the sterilized sensor chip, and then were cultured for 24 hours to adhere the cells to a surface of the culturing compartment. In this regard, Dulbecco's modified eagle medium (DMEM), 10% fetal bovine serum, and 5% penicillin streptomycin were added to the culturing liquid, and then culturing of the cells was carried out at 37° C., and under a 5% CO2 concentration condition.
After identifying that the cells were adhered to the surface of the culturing compartment, 16 μM of PMA was added to the culturing liquid to chemically activate the cells, and change in the cell shape was observed (FIGS. 4-1 and 4-2). In this regard, PMA used as the chemical stimulant acts as a strong tumor promoter and is a chemical that induces cell growth, differentiation, and immune response when the PMA is added to the culturing liquid. […]
For this purpose, a calibration curve (FIG. 4-5) was obtained based on the CV results measured while hydrogen peroxide having varying concentrations was added to the cell culturing liquid. […]

[2] = system: RAW 264.7 cells; experiment: Observation of cell shape change of RAW 264.7 cells after PMA treatment in the sensor chip; assay type: cell-based, murine; conditions: 16 μM PMA added to culturing liquid; RAW 264.7 cells adhered after 24 hours culture; FIGS. 4-1 and 4-2
Procedure: as §1
After identifying that the cells were adhered to the surface of the culturing compartment, 16 μM of PMA was added to the culturing liquid to chemically activate the cells, and change in the cell shape was observed (FIGS. 4-1 and 4-2). In this regard, PMA used as the chemical stimulant acts as a strong tumor promoter and is a chemical that induces cell growth, differentiation, and immune response when the PMA is added to the culturing liquid. When the external stimulating substance such as the PMA is added to the culturing liquid, the immune cells recognize the external stimulating substance as an external stimulus such that the activation of the cells is induced.

CCCCCCCCCCCCCC(=O)O[C@@H]1[C@@H](C)[C@@]2(O)[C@@H](C=C(CO)C[C@]3(O)C(=O)C(C)=C[C@@H]23)[C@@H]2C(C)(C)[C@]12OC(C)=O [PMA, phorbol 12-myristate 13-acetate]
concentration of hydrogen peroxide secreted from the cells over time after the PMA treatment [1]: concentration of hydrogen peroxide secreted from the cells also increases
change in the cell shape after the PMA treatment [2]: cell shape changed into an atypical shape

Source: US12492367B2, “Sensor chip capable of culturing cells and of analyzing cell-derived substance, and cell activity quantitative analysis method using the same” (AJOU UNIVERSITY INDUSTRY-ACADEMIC COOPERATION FOUNDATION, priority 2020, dated 2025)
